Read-outs that look alike come from different tables or passages of the source.
Tests used:
[1] = tested on: MEF cells; test: Cytotoxicity concurrent with Murine CMV secondary assay; type: cell-based, mouse
Experimental: (§1) Compounds that were positive in the CPE assay were confirmed in a similar assay in 96-well plates according to established laboratory protocols with the compounds added 1 h post infection […]. Additionally, 12 1:3 dilutions were done instead of 6 1:5 dilutions for added accuracy. Genome copy number was determined by qPCR using primers 5′-[…]-3′, 5′ […]-3′, and probe 5′-[…]-3′.

[2] = Cytotoxicity concurrent with Adenovirus primary assay; type: cell-based; conditions: human
[3] = tested on: HFF cells; test: Cytotoxicity concurrent with HCMV AD169 primary assay; type: cell-based, human; conditions: human
[4] = tested on: HCMV strain GDGr K17 - resistant isolate; test: HCMV primary assay, resistant isolate GDGr K17, HFF cells; type: cell-based, Human Cytomegalovirus; conditions: Human betaherpesvirus 5, HFF
Experimental: (§2) Assays were performed in monolayers as described. […] Toxicity was measured using CTG as above. […] Toxicity was measured using CTG as above.

[5] = tested on: Adenovirus Adenoid75 strain; test: Adenovirus primary assay, Adenoid75 strain, HFF cells; type: cell-based; conditions: unidentified adenovirus
[6] = tested on: VZV strain Ellen; test: VZV primary assay, strain Ellen, HFF cells; type: cell-based, Varicella Zoster Virus
Experimental: as §2
(§3) Monolayers of HFF cells were prepared in six-well plates and incubated at 37° C. for 2 d to allow the cells to reach confluency. Media was then aspirated from the wells and 0.2 mL of virus-containing solution was added to each of three wells to yield 20-30 plaques in each well. The virus was allowed to adsorb to the cells for 1 h and the plates were agitated every 15 minutes. Compounds were diluted in assay media consisting of MEM with Earl's salts supplemented with 2% FBS, glutamine, penicillin, and gentamycin. Diluted drug was added to duplicate wells and the plates were incubated for various times, depending on the virus used. For HSV-1 and -2, the monolayers were then stained with 1% crystal violet in 20% methanol and the unbound dye removed by washing with dH20. For all other assays, the cell monolayer was stained with 1% Neutral Red solution for 4-6 h then the stain was aspirated and the cells were washed with PBS.

[7] = Cytotoxicity concurrent with HSV1 E-377 primary assay; type: cell-based; conditions: human
Experimental: as §2

[8] = tested on: Murine CMV strain Smith; test: Murine CMV secondary assay, strain Smith, MEF cells; type: cell-based, Mouse Cytomegalovirus
Experimental: as §1

[9] = Cytotoxicity concurrent with HSV2 primary assay; type: cell-based; conditions: human
Experimental: as §2

[10] = tested on: HSV1 strain E-377; test: HSV1 primary assay, strain E-377, HFF cells; type: cell-based, Herpes Simplex Virus 1
Experimental: as §2, §3

[11] = Cytotoxicity concurrent with VZV Ellen primary assay; type: cell-based; conditions: human
Experimental: as §2

[12] = tested on: HSV2 strain G; test: HSV2 primary assay, strain G, HFF cells; type: cell-based, herpes simplex virus 2
Experimental: as §2, §3

[13] = tested on: VZV strain 15-6-001 resistant isolate; test: microbe, parasite or virus in culture; type: cell-based, Varicella Zoster Virus; conditions: Human alphaherpesvirus 3, HFF
Experimental: as §2, §3

[14] = Cytotoxicity concurrent with HCMV AD169 primary assay; type: cell-based, human; conditions: human
[15] = Cytotoxicity concurrent with Adenovirus secondary assay; type: cell-based; conditions: human; Adeno secondary assay, HFF cells
Experimental: (§4) Monolayers of HFF cells were prepared in 96-well plates and incubated at 37° C. for 1 d to allow the cells to reach confluency. Media was then aspirated from the wells and cells infected at a high MOI. At 1 h following infection, the inocula were removed and the monolayers rinsed with fresh media. […] Drug dilutions were added to the wells and the plates were incubated for various times, depending on the virus used and represents a single replication cycle for the virus. A duplicate set of dilutions were also performed but remained uninfected to serve as a cytotoxicity control and received equal compound exposure. Supernatants from each of the infected wells were subsequently titered using CTG in a TCID50 assay to quantify the progeny virus. For HCMV only, viral yield in the supernatants from the infected cells were titered using qPCR with HCMV primers [NT], and probe [NT].

[16] = Cytotoxicity concurrent with EBV primary assay; conditions: human
[17] = tested on: HCMV strain AD169; test: HCMV primary assay (CPE), strain AD169, HFF cells; type: cell-based, Human Cytomegalovirus
Experimental: The antiviral activity of the compound against HCMV in the described Primary assay was measured by treating primary Human foreskin fibroblast (HFF) cells infected with HCMV with a range of compound concentrations—description of methods for this assay can be found in section 1.3.2.1. […] . Additional tested assay parameters in this Primary assay can be found in Table 3.2.1 and include EC90, S150, and S190 values—descriptions of those data points can be found in section 3.2.1.

[18] = tested on: Epstein-Barr virus Akata strain; test: Epstein-Barr primary assay, Akata strain, Akata cells; type: cell-based; conditions: human gammaherpesvirus 4, Akata
[19] = tested on: Adenovirus Adenoid75 strain; test: Adenovirus secondary assay (yield reduction), Adenoid75 strain, HFF cells; type: cell-based; conditions: unidentified adenovirus, HFF
Experimental: as §4

[20] = Cytotoxicity concurrent with VZV 15-6-001 primary assay; type: cell-based; conditions: human, HFF cell line
Experimental: as §2

[21] = tested on: Murine CMV strain Smith; test: Murine CMV primary assay, strain Smith, MEF cells; type: cell-based, Mouse Cytomegalovirus
[22] = Cytotoxicity concurrent with HCMV secondary assay; type: cell-based; conditions: human
Experimental: as §4

[23] = tested on: HCMV strain AD169; test: HCMV secondary assay (yield reduction), strain AD169, HFF cells; type: cell-based, Human Cytomegalovirus; conditions: Human betaherpesvirus 5, virus strain AD169, HFF cells
Experimental: as §4

[24] = Human betaherpesvirus 5, AD169, HFF

NC(=O)CN1CCC(Nc2cc3c4ccc(F)cc4nn3cn2)CC1 [VKT-026]
CC50 [1]: 50 μ.M
CC50 [2]: 24.7 µM
CC50 [3]: 26.9 µM
EC50 [4]: 0.87 µM
EC90 [4]: 10 µM
EC50 ([5]; Adenovirus primary assay, HFF cells, Adenoid75 strain, read-out: EC50): 7.71 µM
EC90 ([5]; Adenovirus primary assay, HFF cells, Adenoid75 strain, read-out: EC90): 50 µM
EC50 ([6]; Human alphaherpesvirus 3, VZV primary assay, strain Ellen, cell line HFF, read-out: EC50): 10 µM
EC90 ([6]; Human alphaherpesvirus 3, VZV primary assay, strain Ellen, cell line HFF, read-out: EC90): 10 µM
CC50 [7]: 10 µM
EC50 [8]: 0.17 µM
EC90 [8]: 5.38 µM
CC50 [9]: 29.4 µM
EC50 ([10]; Human alphaherpesvirus 1, HSV1 primary assay, strain E-377, HFF cells, read-out: EC50): 10 µM
EC90 ([10]; Human alphaherpesvirus 1, HSV1 primary assay, strain E-377, HFF cells, read-out: EC90): 10 µM
CC50 [11]: 22 µM
EC50 ([12]; Human alphaherpesvirus 2, HSV2 primary assay, strain G, HFF cells, read-out: EC50): 10 µM
EC90 ([12]; Human alphaherpesvirus 2, HSV2 primary assay, strain G, HFF cells, read-out: EC90): 50 µM

OCC1CCC(Nc2cc3c4ccc(F)cc4nn3cn2)CC1 (centres unmarked) [VKT-029]
CC50 ([2]; Adenovirus primary assay, HFF cells, read-out: CC50): 50 µM
EC50 [13]: 10 µM
EC90 [13]: 10 µM
CC50 ([14]; HCMV primary assay, HFF cells, read-out: CC50): 50 µM
EC50 ([5]; HFF): 5.12 µM
EC50 ([6]; Human alphaherpesvirus 3, HFF): 4.02 µM
EC90 ([6]; Human alphaherpesvirus 3, HFF): 10 µM
CC50 ([7]; HSV1 E-377 primary assay, HFF cells, read-out: CC50): 50 µM
CC50 [15]: 100 µM
CC50 at 72 h [16]: 50 µM
EC50 [17, 24]: 50 µM
EC90 [17, 24]: 50 µM
EC50 [18]: 4.79 µM
EC90 [18]: 12.1 µM
CC50 ([9]; HSV2 primary assay, HFF cells, read-out: CC50): 50 µM
EC50 ([10]; Human alphaherpesvirus 1, HFF): 50 µM
EC90 ([10]; Human alphaherpesvirus 1, HFF): 50 µM
CC50 ([11]; VZV Ellen primary assay, cell line HFF, read-out: CC50): 45.1 µM
EC90 [19]: 3.91 µM
CC50 [20]: 47.2 µM
EC50 ([12]; Human alphaherpesvirus 2, HFF): 50 µM
EC90 ([12]; Human alphaherpesvirus 2, HFF): 50 µM

Nc1nc(O)c2ncn(COC(CO)CO)c2n1 [Ganciclovir, ganciclovir, reference compound]
EC50 [21]: 5.48 µM
EC90 [21]: 24.9 µM
CC50 [1]: 84.8 μ.M
CC50 ([14]; CC50): 150 µM
EC50 [8]: 7.4 µM
EC90 [8]: 26 µM
EC50 ([17]; Human betaherpesvirus 5, HCMV primary assay, virus strain AD169, HFF cells, read-out: EC50): 1.78 µM
EC90 ([17]; Human betaherpesvirus 5, HCMV primary assay, virus strain AD169, HFF cells, read-out: EC90): 5.67 µM
CC50 [22]: 20 µM
EC90 [23]: 3.88 µM

— patent US20240309004A1, “SELECTIVE CYCLIN-DEPENDENT KINASE INHIBITORS AND METHODS OF THERAPEUTIC USE THEREOF” (ViroKyne Therapeutics, LLC, priority 2021, published 2024)
